Test systems include HCC 2998; U-251; 786-0; MOLT-4; HL-60; SF-295; IGROV-1; CAKI-1; K562; CCRF-CEM; RXF 393; A549; MDA-N; SN12C; MDA-MB-435; KM12; OVCAR-4; LOX IMVI; NCI/ADR-RES.
Common to all, as to experiment: inhibition of tumour cell growth, NCI panel, 48 h

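Exposure lasted 48 hours, with cells grown in 96-well plates and compounds tested at five concentrations. Here, GI50 denotes the concentration required for 50% inhibition of growth.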 The source made the active and inactive calls. No stated cut-off is given here; in the data, active = GI50 up to about 1.1 µM and inactive = higher.

As to `COc1c(-c2cccs2)oc2c(CC(=O)O)cccc2c1=O`, the GI50 in the assay on HCC 2998 was > 100 µM (inactive); with U-251, > 100 µM (inactive); with 786-0 it was > 100 µM (inactive); in the assay with MOLT-4 it was 56.9 µM (inactive); with HL-60, 0.0702 µM (active); with SF-295, > 100 µM (inactive). For the same compound, the GI50 with IGROV-1, with CAKI-1, with K562, with CCRF-CEM, with RXF 393 and in the assay on A549 was > 100 µM (inactive) in each case. Moreover, the GI50 in the assay on MDA-N, in the assay with SN12C and with MDA-MB-435 was > 100 µM (inactive) each time.
With `Cc1cc(NCC2CC/C(=C\C=C\c3ccccc3)C2=O)no1` (stereo not drawn), the GI50 with HCC 2998 was > 100 µM (inactive); in the assay on U-251 it was 40.2 µM (inactive); with 786-0 it was > 100 µM (inactive); in the assay with KM12 it was 41.8 µM (inactive); in the assay with MOLT-4, 49.3 µM (inactive); in the assay on HL-60, 42.7 µM (inactive). Moreover, the GI50 is 40.8 µM (inactive) in the assay on SF-295; > 100 µM (inactive) in the assay with IGROV-1; > 100 µM (inactive) in the assay on OVCAR-4; > 100 µM (inactive) in the assay with CAKI-1; 92.7 µM (inactive) in the assay with K562; > 100 µM (inactive) with CCRF-CEM. Besides, the GI50 in the assay on RXF 393 was > 100 µM (inactive); in the assay on A549, > 100 µM (inactive); in the assay on LOX IMVI, > 100 µM (inactive); with SN12C, > 100 µM (inactive); in the assay with MDA-MB-435 it was > 100 µM (inactive); in the assay on NCI/ADR-RES it was 40.5 µM (inactive).
`O=C(c1ccco1)N(C(=O)N1CCN(c2ccccc2)CC1)S(=O)(=O)c1ccccc1`: the GI50 in the assay on HCC 2998 is 48.4 µM (inactive); in the assay with U-251, 27.4 µM (inactive); in the assay with 786-0, 32.1 µM (inactive); in the assay with KM12, 37.8 µM (inactive); in the assay with MOLT-4 it was 21.9 µM (inactive); with HL-60 it was 21.2 µM (inactive). Also, the GI50 with SF-295 was 43.6 µM (inactive); in the assay on OVCAR-4, 27.5 µM (inactive); with CAKI-1, 22.8 µM (inactive); in the assay with K562, 33 µM (inactive); with CCRF-CEM it was 27 µM (inactive); in the assay with A549 it was 34.4 µM (inactive). Besides, the GI50 in the assay on MDA-N is 22.5 µM (inactive); in the assay with SN12C, 23.9 µM (inactive); in the assay with MDA-MB-435, 23.3 µM (inactive); in the assay with NCI/ADR-RES it was 23.2 µM (inactive).
For `COc1ccc2c(c1)c1c(n2CCN2CCCCC2)-c2ccccc2CC1`, the GI50 was 6.78 µM (inactive) in the assay on HCC 2998; 14.4 µM (inactive) in the assay with U-251; 18.6 µM (inactive) with 786-0; 14 µM (inactive) in the assay with KM12; 14.6 µM (inactive) in the assay with MOLT-4; 14.8 µM (inactive) in the assay with SF-295. Further, the GI50 in the assay on IGROV-1 is 11.6 µM (inactive); in the assay with OVCAR-4, 16.6 µM (inactive); in the assay on CAKI-1, 11.8 µM (inactive); with K562 it was 8.99 µM (inactive); in the assay on CCRF-CEM, 14 µM (inactive); in the assay on A549, 16.4 µM (inactive). Further, the GI50 with LOX IMVI is 21.3 µM (inactive); with SN12C, 16.9 µM (inactive); in the assay on MDA-MB-435 it was 17.5 µM (inactive); in the assay with NCI/ADR-RES, 16.7 µM (inactive).
Regarding `COc1cc(S(=O)(=O)Nc2ccc(-c3csc(/N=C\c4cccc(Oc5ccccc5)c4)n3)cc2)ccc1Cl`, the GI50 is 5.58 µM (inactive) in the assay with 786-0; 31.8 µM (inactive) with KM12; 23 µM (inactive) with MOLT-4; 23.2 µM (inactive) in the assay with HL-60; 47.1 µM (inactive) in the assay on SF-295; 28.8 µM (inactive) in the assay with IGROV-1. In addition, the GI50 is 41.8 µM (inactive) in the assay on OVCAR-4; 74.8 µM (inactive) in the assay with CAKI-1; 22.6 µM (inactive) in the assay on K562; 32 µM (inactive) in the assay on CCRF-CEM; 20.1 µM (inactive) in the assay on RXF 393; 4.62 µM (inactive) in the assay with A549. Further, the GI50 with LOX IMVI was 19.3 µM (inactive); in the assay on SN12C, 25.1 µM (inactive); in the assay with MDA-MB-435 it was 30.8 µM (inactive); in the assay with NCI/ADR-RES, 96.4 µM (inactive).
In the case of `CN(C)c1nc(N(C)C)sc(=O)n1`, the GI50 in the assay with HCC 2998, in the assay on U-251, in the assay with 786-0, in the assay on KM12, in the assay on MOLT-4 and in the assay with HL-60 was > 100 µM (inactive) in each case. Also, the GI50 with SF-295, with IGROV-1, with OVCAR-4, with CAKI-1, with K562 and in the assay on CCRF-CEM was > 100 µM (inactive) each time. For the same compound, the GI50 with RXF 393, in the assay on A549 and with SN12C was > 100 µM (inactive) in each case.
With `Cc1c(/C=N/NC(=S)Nc2cccc(Cl)c2)c(=O)n(-c2ccccc2)n1C`, the GI50 in the assay with HCC 2998 was 55.6 µM (inactive); with U-251 it was 20.7 µM (inactive); in the assay with 786-0, 18.3 µM (inactive); in the assay with KM12, 18.7 µM (inactive); in the assay on MOLT-4 it was 31.3 µM (inactive); with HL-60, 24 µM (inactive). Also, the GI50 with SF-295 was 10.4 µM (inactive); in the assay with IGROV-1, 18.2 µM (inactive); in the assay on OVCAR-4 it was 16.4 µM (inactive); in the assay on CAKI-1, 13 µM (inactive); in the assay with K562, 13.8 µM (inactive); in the assay on CCRF-CEM, 22.6 µM (inactive). Further, the GI50 was 15.8 µM (inactive) with RXF 393, 46.8 µM (inactive) in the assay on LOX IMVI, > 100 µM (inactive) with MDA-MB-435 and 4.35 µM (inactive) in the assay with NCI/ADR-RES.
In the case of `N#CC(/C(CCCC(=O)Nc1cccc([N+](=O)[O-])c1)=N/NC(=O)c1cc2ccccc2cc1O)c1ccccc1` (stereo not drawn), the GI50 was 36.6 µM (inactive) with HCC 2998; 34.6 µM (inactive) in the assay on U-251; 24.2 µM (inactive) in the assay with 786-0; 62.2 µM (inactive) in the assay with KM12; 14.6 µM (inactive) in the assay on MOLT-4; 4.79 µM (inactive) in the assay on HL-60. Besides, the GI50 in the assay with SF-295 is 39.1 µM (inactive); in the assay on IGROV-1, 17.1 µM (inactive); in the assay with OVCAR-4, 31.1 µM (inactive); with CAKI-1 it was 28 µM (inactive); in the assay with K562, 17.7 µM (inactive); with CCRF-CEM, 6.1 µM (inactive). Moreover, the GI50 is 5.07 µM (inactive) in the assay on RXF 393, 47.3 µM (inactive) in the assay on A549, 16.4 µM (inactive) with LOX IMVI and 35.6 µM (inactive) in the assay on SN12C.
In the case of `Cn1nc(C(=O)N2CC(CCl)c3c2cc([N+](=O)[O-])c2ccccc32)cc1NC(=O)Nc1cc(C(=O)N2CC(CCl)c3c2cc([N+](=O)[O-])c2ccccc32)nn1C` (stereo not drawn), the GI50 was > 100 µM (inactive) in the assay on HCC 2998; 68.9 µM (inactive) in the assay with U-251; 79.6 µM (inactive) in the assay on 786-0; > 100 µM (inactive) in the assay on KM12; > 100 µM (inactive) with MOLT-4; 94.8 µM (inactive) with SF-295. Moreover, the GI50 with OVCAR-4, with CAKI-1, with K562, in the assay with A549, in the assay with MDA-N and in the assay on SN12C was > 100 µM (inactive) throughout. Besides, the GI50 in the assay on MDA-MB-435 and with NCI/ADR-RES was > 100 µM (inactive) each time.
Regarding `CCOC(=O)C1C=C1C(C)(C)O` (stereo not drawn), the GI50 in the assay on U-251, in the assay with 786-0, in the assay with KM12, in the assay on MOLT-4, with HL-60 and in the assay on SF-295 was > 10 µM (inactive) in each case. Further, the GI50 with IGROV-1, in the assay on K562, in the assay on CCRF-CEM, with RXF 393, with A549 and in the assay on LOX IMVI was > 10 µM (inactive) each time. Moreover, the GI50 in the assay on SN12C and in the assay with MDA-MB-435 was > 10 µM (inactive) throughout.
In the case of `C#C[C@@]1(O)CCCC2=CC(=O)C[C@]21C`, the GI50 with HCC 2998, with U-251, with 786-0, in the assay with KM12, in the assay on MOLT-4 and in the assay with HL-60 was > 100 µM (inactive) throughout. In addition, the GI50 in the assay with SF-295, in the assay with IGROV-1, in the assay with K562, in the assay with CCRF-CEM, with RXF 393 and with A549 was > 100 µM (inactive) in each case. Further, in the assay with SN12C, the GI50 was > 100 µM (inactive).
As for `COc1cc(C2c3cc4c(cc3[C@@H](Nc3ccc(F)cc3)C3CO[C@@H](O)[C@H]23)OCO4)cc(OC)c1O` (stereo partly drawn), the GI50 was 11 µM (inactive) in the assay with HCC 2998; 1.69 µM (inactive) in the assay on U-251; 4.61 µM (inactive) with 786-0; 5.66 µM (inactive) in the assay on KM12; 0.236 µM (active) with MOLT-4; 0.598 µM (active) in the assay on HL-60. Moreover, the GI50 was 1.24 µM (inactive) in the assay on SF-295; 7.62 µM (inactive) with IGROV-1; 12.2 µM (inactive) in the assay with OVCAR-4; 4.37 µM (inactive) with K562; 0.925 µM (active) in the assay with CCRF-CEM; 0.853 µM (active) with A549. For the same compound, the GI50 is 22.2 µM (inactive) in the assay on MDA-N, 5.12 µM (inactive) in the assay on SN12C, 12.3 µM (inactive) with MDA-MB-435 and 7.36 µM (inactive) in the assay with NCI/ADR-RES.
As for `CC1=C(CO)C(=O)O[C@@H]([C@@H](C)[C@H]2CC[C@H]3[C@@H]4C[C@H]5O[C@]56[C@@H](O)C=CC(=O)[C@]6(C)[C@H]4CC[C@]23C)C1` [WITHAFERIN A], the GI50 is 0.509 µM (active) with HCC 2998; 0.247 µM (active) in the assay on U-251; 0.401 µM (active) with 786-0; 3.72 µM (inactive) in the assay with KM12; 0.187 µM (active) in the assay on MOLT-4; 0.0394 µM (active) in the assay with HL-60. Besides, the GI50 in the assay with SF-295 was 4.22 µM (inactive); in the assay with IGROV-1, 1.16 µM (inactive); with OVCAR-4, 0.566 µM (active); with CAKI-1, 0.463 µM (active); in the assay with K562 it was 0.193 µM (active); with CCRF-CEM, 0.113 µM (active). The GI50 in the assay on A549 was 3.31 µM (inactive).
